Data: patent publication US8486948B2, “Piperazinodihydrothienopyrimidine derivatives” (Boehringer Ingelheim International GmbH, priority 2007, dated 2013)
Where a name gives a salt, the structure may show the parent alone.

Biological target: PDE4B (Homo sapiens, UniProt Q07343)
Experiment: Scintillation Proximity (SPA) assay, inhibition of PDE4B at 1 μM
Type: biochemical
Conditions: test substance 1 μM, one hour incubation with [H3]-cAMP at 30° C.
Experimental: The inhibitions (in %) at 1 μM of the individual Example substances are included in the following Tables of Examples and were determined as follows:
The Scintilation Proximity (SPA) Assays (GE Healthcare, No. TRKQ7090) make use of the different affinities of cyclic 3″-5″-adenosine monophosphate (cAMP, low affinity) and linear 5′-adenosine monophosphate (AMP, high affinity) for yttrium silicate scintillator beads. The cAMP specific phosphodiesterase (PDE) PDE4B cleaves the 3′-phosphoester bond of the tritium-labelled [H3]-cAMP to form the [H3]-5′-AMP. Because of its higher affinity for the scintillator beads this [H3]-AMP accumulates on the beads and causes scintillation events (flashes of light) which are measured in a Wallac Microbeta Scintillation Counter.
The test starts with one hour's incubation of [H3]-cAMP with the PDE4B enzyme in assay buffer at 30° C., once with the Example substance that is to be tested (in a concentration of 1 μM) and once without the Example substance that is to be tested. After this incubation the reaction is stopped by the addition of the beads. The beads are given an opportunity to settle over the next 45 minutes, then they are measured in the Scintillation Counter. If the substance is capable of inhibiting the enzymatic activity of the PDE4B, less [H3]-AMP is formed during the incubation phase and fewer scintillation events can be measured.

Sequence of PDE4B (Q07343 whole entry, species assumed): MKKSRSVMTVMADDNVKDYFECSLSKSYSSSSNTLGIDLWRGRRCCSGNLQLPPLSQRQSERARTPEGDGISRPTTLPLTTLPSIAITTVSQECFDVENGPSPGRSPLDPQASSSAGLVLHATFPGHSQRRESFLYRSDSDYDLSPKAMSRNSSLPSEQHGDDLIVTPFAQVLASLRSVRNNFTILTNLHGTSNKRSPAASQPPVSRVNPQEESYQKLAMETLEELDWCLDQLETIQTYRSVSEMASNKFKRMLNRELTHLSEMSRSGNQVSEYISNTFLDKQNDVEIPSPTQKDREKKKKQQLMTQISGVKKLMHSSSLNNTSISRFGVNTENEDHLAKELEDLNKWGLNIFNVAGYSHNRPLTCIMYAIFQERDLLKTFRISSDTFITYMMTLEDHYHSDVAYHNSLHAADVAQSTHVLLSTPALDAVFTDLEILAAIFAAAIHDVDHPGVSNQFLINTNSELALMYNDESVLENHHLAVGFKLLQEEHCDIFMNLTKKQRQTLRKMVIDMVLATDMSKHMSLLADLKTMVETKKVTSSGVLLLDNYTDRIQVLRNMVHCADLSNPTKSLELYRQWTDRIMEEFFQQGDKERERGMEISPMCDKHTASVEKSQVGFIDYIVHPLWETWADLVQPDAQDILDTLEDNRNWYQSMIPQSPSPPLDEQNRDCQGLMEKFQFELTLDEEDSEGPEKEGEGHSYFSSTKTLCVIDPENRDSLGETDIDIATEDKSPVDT

inhibition at 1 µM (Table A) | Compound | also measured
 | CC(C)[C@H](CO)Nc1nc(N2CCn3c(nnc3-c3ccc(F)cc3)C2)nc2c1[S+]([O-])CC2 (stereo partly drawn) [Example 43] | inhibition at 1 µM (Table C): 88%
 | Cc1nn(C)cc1CNC(=O)c1cn2c(n1)CN(c1nc3c(c(NC4CCOCC4)n1)[S+]([O-])CC3)CC2 (stereo not drawn) [Example 57] | inhibition at 1 µM (Table D): 94%
 | CC(C)[C@H](CO)Nc1nc(N2CCn3cnnc3C2)nc2c1[S+]([O-])CC2 (stereo partly drawn) [Example 45, (R)-2-[2-(5,6-DIHYDRO-8H-[1,2,4]TRIAZOLO[4,3-A]PYRAZIN-7-YL)-5-OXO-6,7-DIHYDRO-5H-5λ^4-THIENO[3,2-D]PYRIMIDIN-4-YLAMINO]-3-METHYL-BUTAN-1-OL TRIFLUOROACETATE] | inhibition at 1 µM (Table C): 55%
 | CN(C(=O)c1cn2c(n1)CN(c1nc3c(c(NC4CCOCC4)n1)[S+]([O-])CC3)CC2)C1CC1 (stereo not drawn) [Example 50] | inhibition at 1 µM (Table D): 93%
93% | [O-][S+]1CCc2nc(N3C[C@H]4CC3CN4c3ccc(F)cc3)nc(NC3(CO)CC3)c21 (stereo partly drawn) [Example 24, (1-{2-[5-(4-fluorophenyl)-2,5-diazabicyclo[2,2,1]hept-2-yl]-5-oxo-6,7-dihydro-5H-5λ^4-thieno[3,2-d]pyrimidin-4-ylamino}-cyclopropyl)-methanol] | 
94% | CC(C)[C@H](CO)Nc1nc(N2CCN(c3ccc(Cl)cc3)C[C@@H]2C)nc2c1[S+]([O-])CC2 (stereo partly drawn) [Example 2] | 
 | [O-][S+]1CCc2nc(N3CCn4c(nnc4-c4ccc(F)cc4)C3)nc(NC3(CO)CC3)c21 (stereo not drawn) [Example 31] | inhibition at 1 µM (Table C): 93%
 | CCOC(=O)c1cn2c(n1)CN(c1nc3c(c(Nc4cccc(F)c4)n1)[S+]([O-])CC3)CC2 (stereo not drawn) [Example 38] | inhibition at 1 µM (Table C): 95%
 | [O-][S+]1CCc2nc(N3CCn4c(Cc5ccc(Cl)c(Cl)c5)nnc4C3)nc(Nc3cccc(F)c3)c21 (stereo not drawn) [Example 40, {2-[3-(3,4-dichlorobenzyl)-5,6-dihydro-8H-[1,2,4]triazolo[4,3-a]pyrazin-7-yl]-5-oxo-6,7-dihydro-5H-5λ^4-thieno[3,2-d]pyrimidin-4-yl}-(3-fluorophenyl)-amine] | inhibition at 1 µM (Table C): 94%
 | [O-][S+]1CCc2nc(N3CCn4c(nnc4-c4ccc(F)cc4)C3)nc(Nc3cccc(F)c3)c21 (stereo not drawn) [Example 39, (3-fluorophenyl)-{2-[3-(4-fluorophenyl)-5,6-dihydro-8H-[1,2,4]triazolo[4,3-a]pyrazin-7-yl]-5-oxo-6,7-dihydro-5H-5λ^4-thieno[3,2-d]pyrimidin-4-yl}-amine] | inhibition at 1 µM (Table C): 95%
 | O=C(c1cn2c(n1)CN(c1nc3c(c(NC4CCOCC4)n1)[S+]([O-])CC3)CC2)N1CCOCC1 (stereo not drawn) [Example 48, Morpholin-4-yl-{7-[5-oxo-4-(tetrahydropyran-4-ylamino)-6,7-dihydro-5H-5λ^4-thieno[3,2-d]pyrimidin-2-yl]-5,6,7,8-tetrahydroimidazo[1,2-a]pyrazin-2-yl}-methanone] | inhibition at 1 µM (Table D): 93%
 | CN1C[C@@H](Nc2nc(N3CCn4c(nnc4-c4ccc(F)cc4)C3)nc3c2[S+]([O-])CC3)CCC1=O (stereo partly drawn) [Example 47] | inhibition at 1 µM (Table D): 96%
86% | O=C1CN(c2nc3c(c(NC4(CO)CC4)n2)[S+]([O-])CC3)CCN1c1ccccc1 (stereo not drawn) [Example 16] | 
95% | [O-][S+]1CCc2nc(N3CC4CC3CN4c3ccc(Br)cc3)nc(NC3(CO)CC3)c21 (stereo not drawn) [Example 22] | 
90% | O=C1CN(c2nc3c(c(NC4(CO)CC4)n2)[S+]([O-])CC3)CCN1c1ccc(Br)cc1 (stereo not drawn) [Example 11] | 
 | CC(C)(NC(=O)c1cn2c(n1)CN(c1nc3c(c(NC4CCOCC4)n1)[S+]([O-])CC3)CC2)c1ccncc1 (stereo not drawn) [Example 53] | inhibition at 1 µM (Table D): 94%
 | CC(C)[C@H](CO)Nc1nc(N2CCn3c(Cc4ccc(Cl)c(Cl)c4)nnc3C2)nc2c1[S+]([O-])CC2 (stereo partly drawn) [Example 44] | inhibition at 1 µM (Table C): 78%
 | [O-][S+]1CCc2nc(N3CCn4c(Cc5ccc(Cl)c(Cl)c5)nnc4C3)nc(NC3(CO)CC3)c21 (stereo not drawn) [Example 32] | inhibition at 1 µM (Table C): 91%
 | CN1CCC(N(C)C(=O)c2cn3c(n2)CN(c2nc4c(c(NC5CCOCC5)n2)[S+]([O-])CC4)CC3)CC1 (stereo not drawn) [Example 49] | inhibition at 1 µM (Table D): 93%
 | [O-][S+]1CCc2nc(N3CCn4cnnc4C3)nc(Nc3cccc(F)c3)c21 (stereo not drawn) [Example 41, [2-(5,6-DIHYDRO-8H-[1,2,4]TRIAZOLO[4,3-A]PYRAZIN-7-YL)-5-OXO-6,7-DIHYDRO-5H-5λ^4-THIENO[3,2-D]PYRIMIDIN-4-YL]-(3-FLUOROPHENYL)-AMINE TRIFLUOROACETATE] | inhibition at 1 µM (Table C): 90%
95% | [O-][S+]1CCc2nc(N3CC4CC3CN4c3ccc(Cl)cc3)nc(NC3CCOCC3)c21 (stereo not drawn) [Example 6] | 
77% | CC(C)[C@H](CO)Nc1nc(N2CCN(c3ccccc3)C(=O)C2)nc2c1[S+]([O-])CC2 (stereo partly drawn) [Example 15] | 
96% | CN1C[C@@H](Nc2nc(N3CCN(c4ccccc4)C(=O)C3)nc3c2[S+]([O-])CC3)CCC1=O (stereo partly drawn) [Example 17] | 

inhibition at 1 µM (Table A) | Compound | also measured
 | [O-][S+]1CCc2nc(N3CCn4cnnc4C3)nc(NC3CCOCC3)c21 (stereo not drawn) [Example 37, [2-(5,6-DIHYDRO-8H-[1,2,4]TRIAZOLO[4,3-A]PYRAZIN-7-YL)-5-OXO-6,7-DIHYDRO-5H-5λ^4-THIENO[3,2-D]PYRIMIDIN-4-YL]-(TETRAHYDRO-PYRAN-4-YL)-AMINE TRIFLUOROACETATE] | inhibition at 1 µM (Table C): 87%
95% | O=C1CN(c2nc3c(c(Nc4cccc(F)c4)n2)[S+]([O-])CC3)CCN1c1ccccc1 (stereo not drawn) [Example 19] | 
94% | [O-][S+]1CCc2nc(N3CC4CC3CN4c3ccc(F)cc3)nc(NC3CCOCC3)c21 (stereo not drawn) [Example 26] | 
95% | [O-][S+]1CCc2nc(N3CC4CC3CN4c3ccc(Cl)cc3)nc(NC3(CO)CC3)c21 (stereo not drawn) [Example 8] | 
 | CCOC(=O)c1cn2c(n1)CN(c1nc3c(c(N[C@H]4CCC(=O)N(C)C4)n1)[S+]([O-])CC3)CC2 (stereo partly drawn) [Example 46] | inhibition at 1 µM (Table D): 97%
95% | [O-][S+]1CCc2nc(N3C[C@H]4CC3CN4c3ccc(Br)cc3)nc(Nc3cccc(F)c3)c21 (stereo partly drawn) [Example 21, {2-[5-(4-bromophenyl)-2,5-diazabicyclo[2,2,1]hept-2-yl]-5-oxo-6,7-dihydro-5H-5λ^4-thieno[3,2-d]pyrimidin-4-yl}-(3-fluorophenyl)-amine] | 
95% | C[C@H]1CN(c2ccc(Cl)cc2)CCN1c1nc2c(c(NC3(CO)CC3)n1)[S+]([O-])CC2 (stereo partly drawn) [Example 5] | 
94% | [O-][S+]1CCc2nc(N3CC4CC3CN4c3cccc(F)c3)nc(NC3CCOCC3)c21 (stereo not drawn) [Example 25] | 
 | CCOC(=O)c1cn2c(n1)CN(c1nc3c(c(N[C@@H](CO)C(C)C)n1)[S+]([O-])CC3)CC2 (stereo partly drawn) [Example 42] | inhibition at 1 µM (Table C): 94%
92% | O=C1CN(c2nc3c(c(NC4CCOCC4)n2)[S+]([O-])CC3)CCN1c1cccc(Br)c1 (stereo not drawn) [Example 14] | 
 | CCOC(=O)c1cn2c(n1)CN(c1nc3c(c(NC4CCOCC4)n1)[S+]([O-])CC3)CC2 (stereo not drawn) [Example 34] | inhibition at 1 µM (Table C): 95%
 | Cc1nn(C)cc1C(C)NC(=O)c1cn2c(n1)CN(c1nc3c(c(NC4CCOCC4)n1)[S+]([O-])CC3)CC2 (stereo not drawn) [Example 52] | inhibition at 1 µM (Table D): 93%
 | Cc1nn(C)c(C)c1CNC(=O)c1cn2c(n1)CN(c1nc3c(c(NC4CCOCC4)n1)[S+]([O-])CC3)CC2 (stereo not drawn) [Example 51] | inhibition at 1 µM (Table D): 94%
93% | O=C1CN(c2nc3c(c(NC4CCOCC4)n2)[S+]([O-])CC3)CCN1c1ccc(Br)cc1 (stereo not drawn) [Example 12] | 
95% | C[C@H]1CN(c2ccc(Cl)cc2)CCN1c1nc2c(c(NC3CCOCC3)n1)[S+]([O-])CC2 (stereo partly drawn) [Example 4] | 
 | [O-][S+]1CCc2nc(N3CCn4cnnc4C3)nc(NC3(CO)CC3)c21 (stereo not drawn) [Example 33, {1-[2-(5,6-DIHYDRO-8H-[1,2,4]TRIAZOLO[4,3-A]PYRAZIN-7-YL)-5-OXO-6,7-DIHYDRO-5H-5λ^4-THIENO[3,2-D]PYRIMIDIN-4-YLAMINO]-CYCLOPROPYL}-METHANOL TRIFLUORACETATE] | inhibition at 1 µM (Table C): 75%
95% | [O-][S+]1CCc2nc(N3CC4CC3CN4c3ccc(Cl)cc3)nc(Nc3cccc(F)c3)c21 (stereo not drawn) [Example 7] | 
94% | C[C@H]1CN(c2ccc(Cl)cc2)CCN1c1nc2c(c(Nc3cccc(F)c3)n1)[S+]([O-])CC2 (stereo partly drawn) [Example 10] | 
 | O=C(c1cn2c(n1)CN(c1nc3c(c(NC4CCOCC4)n1)[S+]([O-])CC3)CC2)N(C1CCOCC1)C1CC1 (stereo not drawn) [Example 55] | inhibition at 1 µM (Table D): 93%
19% | O=C1CN(c2nc3c(c(NC4(CO)CC4)n2)[S+]([O-])CC3)CCN1c1cccc(Br)c1 (stereo not drawn) [Example 13] | 
93% | O=C1CN(c2nc3c(c(NC4CCOCC4)n2)[S+]([O-])CC3)CCN1c1ccccc1 (stereo not drawn) [Example 18] | 
 | [O-][S+]1CCc2nc(N3CCn4c(nnc4-c4ccc(F)cc4)C3)nc(NC3CCOCC3)c21 (stereo not drawn) [Example 35] | inhibition at 1 µM (Table C): 94%
96% | C[C@H]1CN(c2ccc(Cl)cc2)CCN1c1nc2c(c(N[C@H]3CCC(=O)N(C)C3)n1)[S+]([O-])CC2 (stereo partly drawn) [Example 3] | 

Compound | inhibition at 1 µM (Table A) | also measured
[O-][S+]1CCc2nc(N3C4CC[C@@H]3CN(c3ccc(Br)cc3)C4)nc(NC3(CO)CC3)c21 (stereo partly drawn) [Example 28, (1-{2-[3-(4-bromophenyl)-3,8-diazabicyclo[3.2.1]oct-8-yl]-5-oxo-6,7-dihydro-5H-5λ^4-thieno[3,2-d]pyrimidin-4-ylamino}-cyclopropyl)-methanol trifluoroacetate] | 97% | 
[O-][S+]1CCc2nc(N3C4CCC3CN(c3ccc(Br)cc3)C4)nc(NC3CCOCC3)c21 (stereo not drawn) [Example 27] | 97% | 
